Measured values reported in patent US8309573B2, “Salt of isoquinoline compound and crystal thereof” (Mitsubishi Tanabe Pharma Corporation, priority 2007, dated 2012).

Key:
[1] = Chemical stability comparison test (one month preservation, purity by HPLC); format: physicochemical
Description: The sample after preservation was measured for chemical purity by HPLC. The HPLC conditions are shown below. • apparatus: SHIMADZU Corporation • column: Inertsil ODS-3V (GL Sciences Inc.) inner diameter 4.6 mm and length 150 mm • column oven: 40° C. • detection wavelength: 234 nm • measurement operation: a sample (about 1 mg) was measured in a vial container for HPLC, dissolved in a mixture (1 mL) of water/acetonitrile=1:1, and analyzed under the following conditions. • eluent composition: SOLUTION A 0.1% trifluoroacetic acid/water • SOLUTION B 0.1% trifluoroacetic acid/acetonitrile • gradient: SOLUTION B concentration: 5→100% (60 min) • mobile phase flow rate: 1.0 mL/min • injection volume: 5 μL
An increase rate of related substances after one month preservation was determined from the peak area in the HPLC chromatogram.

[2] = Hygroscopicity comparison test (adsorption isotherm curve measurement); format: physicochemical; conditions: 0-95% RH, 25° C.
Description: An adsorption isotherm curve measurement was performed under the following conditions.
apparatus: DVS-1 (sms Ltd., UK)
measurement temperature: 25° C.
measurement operation: a sample was measured in a sample cup, sample weight was measured by successively changing the relative humidity at 50→0→95→0→50% RH.
The smaller weight change due to humidity is an important factor for the management of charge amount of the bulk drug for pharmaceutical products.

physchem = conditions: water, thermodynamic from solid
Description: This was subjected to ultrasonication on a water bath for 10 min, and gently shaken in a twin mixer (TM-282, AS ONE Corporation) at room temperature for 1 hr. After shaking, the mixture was centrifuged by a portable ultracentrifuge (10000 rpm×10 min., MC-150, TOMY SEIKO CO., LTD.) and the supernatant was filtered (Millex-LH, Millipore Corporation).

[3] = preserved one month at 40° C. 75% RH

Molecule | Increase rate of related substances (%) ([1]; preserved one month at 30° C.) | Increase rate of related substances (%) ([1]; preserved one month at 40° C.) | Increase rate of related substances (%) [1, 3] | Increase rate of related substances (%) ([1]; preserved one month at 50° C.) | moisture absorption [2] | moisture absorption, corresponding hydrated water [2] | solubility (physchem)
anhydrous (R)-3-[2-(2-hydroxymethylpyrrolidin-1-yl)ethyl]-5-methyl-2H-isoquinolin-1-one monophosphate | −0.01% | −0.01% | −0.02% | −0.01% | 0.5 % (w/w) | 0.1 hydrated water | –
Cc1cccc2c(=O)[nH]c(CCN3CCC[C@@H]3CO)cc12.Cl.O.O [monohydrochloride dihydrate, (R)-3-[2-(2-hydroxymethylpyrrolidin-1-yl)ethyl]-5-methyl-2H-isoquinolin-1-one monohydrochloride dihydrate] | – | – | – | – | 11 % (w/w) | 2 hydrated water | 45 mg/mL
Cc1cccc2c(=O)[nH]c(CCN3CCC[C@@H]3CO)cc12 [free form, (R)-3-[2-(2-hydroxymethylpyrrolidin-1-yl)ethyl]-5-methyl-2H-isoquinolin-1-one] | +0.16% | +0.18% | +0.28% | +1.30% | – | – | ≤ 1 mg/mL
